In the CheMixHub viscosity set:
Where “and” joins values, the source holds several entries; their conditions need not be identical. Equal entries are not always repeated.

Assays:
[1] = xn = mol fraction of the nth substance listed

C=CC(=O)OC
viscosity
Details	293.15 K	298.15 K	303.15 K	308.15 K	313.15 K	318.15 K
100 kPa	0.5038 mPa·s	0.4602 mPa·s	0.435 mPa·s and 0.4197 mPa·s	0.415 mPa·s and 0.3856 mPa·s	0.396 mPa·s and 0.355 mPa·s	0.3276 mPa·s
101 kPa	0.5038 mPa·s and 0.492 mPa·s and 0.502 mPa·s	–	–	–	–	0.3276 mPa·s and 0.375 mPa·s and 0.334 mPa·s

C=CC(=O)OCCCC
viscosity
Details	293.15 K	298.15 K	303.15 K	308.15 K	313.15 K	318.15 K
100 kPa	0.8996 mPa·s	0.8385 mPa·s	0.782 mPa·s	0.7306 mPa·s	0.6833 mPa·s	0.6387 mPa·s
101 kPa	0.8996 mPa·s and 0.868 mPa·s	–	0.782 mPa·s and 0.751 mPa·s and 0.781 mPa·s	–	0.6833 mPa·s and 0.658 mPa·s and 0.684 mPa·s	0.6387 mPa·s and 0.618 mPa·s
101.33 kPa	0.8763 mPa·s	–	0.7568 mPa·s	–	0.6609 mPa·s	–

CCCCCC
viscosity
Details	293.15 K	298 K	303 K	303.15 K	308.15 K	313 K	313.15 K	318.15 K	323 K	323.15 K
100 kPa	–	–	–	0.2941 mPa·s	–	–	0.259 mPa·s and 0.26 mPa·s and 0.257 mPa·s	–	–	0.2345 mPa·s and 0.231 mPa·s
101 kPa	0.31 mPa·s and 0.3119 mPa·s	0.31 mPa·s	0.2673 mPa·s	–	0.268 mPa·s and 0.265 mPa·s	0.2482 mPa·s	–	0.3 mPa·s and 0.245 mPa·s	0.2285 mPa·s	0.2333 mPa·s and 0.235 mPa·s
101.3 kPa	–	–	–	0.2776 mPa·s and 0.286 mPa·s and 0.294 mPa·s	–	–	0.274 mPa·s	–	–	0.251 mPa·s
101.33 kPa	0.31 mPa·s	–	0.273 mPa·s and 0.2865 mPa·s	–	–	0.247 mPa·s	0.2391 mPa·s and 0.257 mPa·s and 0.257 mPa·s	0.247 mPa·s	0.226 mPa·s	0.2524 mPa·s

CCCCCCCC[P+](CC)(CC)CC.O=[N+]([O-])c1cnc[n-]1
100 kPa
Details	viscosity [mPa·s]
293.15 K	398
298.15 K	286
303.15 K	212
308.15 K	160
313.15 K	124
318.15 K	98
323.15 K	78

CN(C)CCO
viscosity
Details	293.15 K	298.15 K	303.15 K	308.15 K	313.15 K	318.15 K	323.15 K
101 kPa	4.27 mPa·s	3.78 mPa·s	3.24 mPa·s and 2.835 mPa·s	2.91 mPa·s and 2.485 mPa·s	2.53 mPa·s and 2.186 mPa·s	2.27 mPa·s and 1.938 mPa·s	2.04 mPa·s and 1.723 mPa·s
101.3 kPa	–	–	2.419 mPa·s	–	2.023 mPa·s	–	1.734 mPa·s

O=C([O-])CC(O)(CC(=O)[O-])C(=O)[O-].[NH3+]CCO.[NH3+]CCO.[NH3+]CCO
101 kPa
Details	viscosity [mPa·s]
293.15 K	183.9
303.15 K	113.8
313.15 K	67.2
323.15 K	37.38

O=C1CCCN1C1CCCCC1 + O=C1CCCN1
[1], 298.15 K, 100 kPa
Details	viscosity [mPa·s]
x1 = 0.0107	13.4
x2 = 0.0201	10.5
x2 = 0.0289	10.56
x2 = 0.0403	10.66
x2 = 0.0491	10.72
x2 = 0.0694	10.86
x2 = 0.08	10.94
x2 = 0.0913	11.02
x2 = 0.0973	11.06
x2 = 0.1019	11.11
x2 = 0.1982	11.73
x2 = 0.2954	12.31
x2 = 0.3091	12.44
x2 = 0.389	12.77
x2 = 0.4916	13.18
x2 = 0.602	13.5
x2 = 0.7053	13.64
x2 = 0.8042	13.66
x2 = 0.902	13.66
x2 = 0.9031	13.63
x2 = 0.9108	13.62
x2 = 0.9153	13.63
x2 = 0.9306	13.59
x2 = 0.9503	13.56
x2 = 0.9597	13.54
x2 = 0.9696	13.49
x2 = 0.979	13.45

O=C(O)CO + O=C(O)[C@@H]1CCCN1
[1], 323 K, 100 kPa
Details	viscosity [mPa·s]
x2 = 0.25	480
x2 = 0.338	1340
x2 = 0.504	8080

ClCC(Cl)Cl + O=S1(=O)CCCC1
viscosity [mPa·s], [1], 100 kPa
Details	x2 = 0.0188	x2 = 0.1215	x2 = 0.2323	x2 = 0.3466	x2 = 0.4454	x2 = 0.5548	x2 = 0.6864	x2 = 0.8249	x2 = 0.9723
303.15 K	1.202	2.163	3.186	4.237	5.137	6.131	7.307	8.528	9.798
308.15 K	1.108	1.937	2.834	3.752	4.539	5.402	6.428	7.489	8.588
313.15 K	1.024	1.754	2.548	3.369	4.069	4.831	5.738	6.671	7.649

CC(C)CO + OCC(O)CO
viscosity [mPa·s], [1], 101.33 kPa
Details	x2 = 0.1006	x2 = 0.2008	x2 = 0.2991	x2 = 0.3991	x2 = 0.5003	x2 = 0.6005	x2 = 0.7001	x2 = 0.7997	x2 = 0.8994
298.15 K	4.625	7.894	14.39	26.58	56.03	118.3	233.2	395.9	595.4
308.15 K	3.192	5.58	9.274	15.86	30.35	59.4	110.6	179.4	269.1
318.15 K	2.33	3.788	6.116	9.794	17.19	32.13	55.06	86.54	120.9

O=C(O)CO + OC[C@@H](O)[C@H](O)[C@@H](O)CO
[1], 101.33 kPa, x2 = 0.25
Details	viscosity [mPa·s]
303.15 K	937
313.15 K	446.3
323.15 K	208.9

CCCCCOC(C)=O + OCc1ccccc1
Details	viscosity [mPa·s]
[1], 298.15 K, 101 kPa, x1 = 0.5	1.035

CCCCCOC(C)=O + Oc1ccccc1
Details	viscosity [mPa·s]
[1], 298.15 K, 101 kPa, x2 = 0.5	1.105

Cc1ccccc1O + Oc1ccccc1
[1], 298.15 K, 101 kPa
Details	viscosity [mPa·s]
x2 = 0.1343	7.835
x2 = 0.1973	7.93
x2 = 0.3	8.099
x2 = 0.3881	8.235
x2 = 0.491	8.404
x2 = 0.6283	8.565
x2 = 0.6927	8.645
x2 = 0.7579	8.731
x2 = 0.8003	8.757
x2 = 0.873	8.825
x2 = 0.901	8.851

C=CC(=O)OC + c1ccccc1
viscosity [mPa·s], [1], 101 kPa
Details	x2 = 0.105	x2 = 0.2191	x2 = 0.3452	x2 = 0.4069	x2 = 0.5314	x2 = 0.6457	x2 = 0.714	x2 = 0.7852	x2 = 0.8977
298.15 K	0.472	0.485	0.501	0.509	0.526	0.543	0.554	0.565	0.585
303.15 K	0.433	0.447	0.462	0.47	0.488	0.505	0.515	0.526	0.545
308.15 K	0.398	0.412	0.428	0.436	0.453	0.47	0.481	0.492	0.51
313.15 K	0.369	0.382	0.392	0.403	0.418	0.433	0.442	0.452	0.467

C=CC(=O)OCCCC + c1ccccc1
viscosity [mPa·s], [1], 101 kPa
Details	x2 = 0.1282	x2 = 0.2182	x2 = 0.2926	x2 = 0.4108	x2 = 0.4964	x2 = 0.5923	x2 = 0.708	x2 = 0.7944	x2 = 0.9032
298.15 K	0.799	0.773	0.749	0.719	0.699	0.679	0.658	0.641	0.62
303.15 K	0.738	0.709	0.686	0.656	0.636	0.618	0.601	0.59	0.574
308.15 K	0.683	0.649	0.625	0.595	0.576	0.564	0.554	0.545	0.531
313.15 K	0.62	0.585	0.565	0.538	0.524	0.51	0.501	0.496	0.485

CC(C)(C)c1ccccc1 + c1ccccc1
[1], 303.15 K, 101.3 kPa
Details	viscosity [mPa·s]
x2 = 0.0424	0.9763
x2 = 0.1376	0.9194
x2 = 0.2605	0.8507
x2 = 0.4018	0.7791
x2 = 0.5266	0.725
x2 = 0.682	0.6637
x2 = 0.7952	0.6265
x2 = 0.865	0.6036
x2 = 0.9376	0.5792

CC(C)CO + c1ccccc1
[1], 303 K, 101.3 kPa
Details	viscosity [mPa·s]
x2 = 0.1012	2.322
x2 = 0.2055	1.88
x2 = 0.3024	1.551
x2 = 0.4124	1.26
x2 = 0.511	1.057
x2 = 0.6016	0.9052
x2 = 0.706	0.7704
x2 = 0.8037	0.6783
x2 = 0.8987	0.6131

CCOC(=O)CC + c1ccccc1
viscosity [mPa·s], [1], 101.3 kPa
Details	308.15 K	318.15 K
x1 = 0.0521	0.53	0.47
x1 = 0.0984	0.525	0.47
x1 = 0.2018	0.513	0.469
x1 = 0.3029	0.503	0.468
x1 = 0.4009	0.495	0.465
x1 = 0.4991	0.487	0.462
x1 = 0.5982	0.481	0.459
x1 = 0.7114	0.475	0.453
x1 = 0.8042	0.472	0.448
x1 = 0.8989	0.469	0.443
x1 = 0.92	0.468	0.441

Cc1ccccc1O + c1ccccc1
viscosity [mPa·s], [1]
Details	298.15 K	308.15 K	318.15 K	323.15 K
101 kPa, x1 = 0.1176	–	0.641	–	–
101 kPa, x1 = 0.2203	–	0.7752	–	–
101 kPa, x1 = 0.3357	–	0.9753	–	–
101 kPa, x1 = 0.4352	–	1.164	–	–
101 kPa, x1 = 0.5693	–	1.535	–	–
101 kPa, x1 = 0.6728	–	2.109	–	–
101 kPa, x1 = 0.7757	–	2.775	–	–
101 kPa, x1 = 0.896	–	3.774	–	–
101.33 kPa, x1 = 0.1	0.704	0.609	0.531	0.497
101.33 kPa, x1 = 0.2	0.849	0.727	0.623	0.578
101.33 kPa, x1 = 0.4	1.319	1.073	0.894	0.815
101.33 kPa, x1 = 0.5	1.661	1.334	1.084	0.981
101.33 kPa, x1 = 0.6	2.148	1.668	1.331	1.186
101.33 kPa, x1 = 0.8	3.874	2.766	2.067	1.807

Cc1ccccc1O + c1ccncc1
viscosity [mPa·s], [1], 101 kPa
Details	x1 = 0.09109	x1 = 0.1923	x1 = 0.2702	x1 = 0.3823	x1 = 0.4812	x1 = 0.5958	x1 = 0.7186	x1 = 0.8145	x1 = 0.8918
293.15 K	1.176	1.556	1.983	2.962	4.455	6.845	9.26	10.04	10.01
303.15 K	1.022	1.35	1.724	2.56	3.625	4.935	6.23	6.565	6.45
313.15 K	0.886	1.148	1.436	2.045	2.75	3.575	4.29	4.415	4.325
